Molecular target: T1, CDK1/Cyclin B (Homo sapiens, UniProt P06493)
T1 construct: purchased Invitrogen PR4768C
Experiment: Enzymatic assay for CDK1 (FRET based LANCE Ultra kinase assay)
Format: biochemical
Conditions: read-out: CDK1 enzymatic activity (IC50 range)
How it was run: (§1)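 Each CDK complex ([…]) phosphorylated 68 nM ULight-MBP peptide with ATP at Km for 60 min at 23° C., against 8 compound doses (4-fold dilutions). EDTA/Eu-anti-phospho-MBP detection, 60 min, then TR-FRET emission at 615 and 665 nm.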

T1 sequence (P06493 whole entry): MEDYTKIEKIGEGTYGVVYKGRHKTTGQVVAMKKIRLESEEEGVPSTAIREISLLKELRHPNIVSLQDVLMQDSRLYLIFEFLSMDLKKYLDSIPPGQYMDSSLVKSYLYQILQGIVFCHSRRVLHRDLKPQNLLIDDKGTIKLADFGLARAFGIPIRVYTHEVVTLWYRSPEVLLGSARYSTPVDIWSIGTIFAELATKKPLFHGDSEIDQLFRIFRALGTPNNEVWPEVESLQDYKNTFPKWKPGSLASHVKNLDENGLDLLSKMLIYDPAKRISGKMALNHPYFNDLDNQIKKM
T1 sequence (P14635 whole entry partner): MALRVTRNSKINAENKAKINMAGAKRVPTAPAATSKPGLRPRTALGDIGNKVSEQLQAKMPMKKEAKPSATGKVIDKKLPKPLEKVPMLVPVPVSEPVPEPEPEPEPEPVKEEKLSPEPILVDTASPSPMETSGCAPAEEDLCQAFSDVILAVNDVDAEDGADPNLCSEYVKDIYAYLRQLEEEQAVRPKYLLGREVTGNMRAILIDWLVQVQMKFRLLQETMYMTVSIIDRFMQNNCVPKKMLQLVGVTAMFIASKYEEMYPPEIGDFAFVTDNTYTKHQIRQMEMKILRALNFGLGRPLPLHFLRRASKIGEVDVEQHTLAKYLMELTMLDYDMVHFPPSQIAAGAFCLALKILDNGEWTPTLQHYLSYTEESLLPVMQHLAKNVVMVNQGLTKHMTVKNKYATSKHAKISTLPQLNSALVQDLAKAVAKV

IC50	Compound
> 1000 nM	CC(C)c1cnn2c(NCc3ccccc3-c3cc4ccccc4[nH]3)nc(N3CCC(N)(CO)CC3)nc12 [Compound 129]
100 to 1000 nM	CC(C)c1cnn2c(NCc3ccccc3-n3cc4cc(C(=O)NC5COC5)ccc4n3)nc(N3CCC(N)CC3)nc12 [Compound 176]
> 1000 nM	Cc1[nH]c(-c2ccccc2CNc2nc(N3CCC(N)CC3)nc3c(C(C)C)cnn23)nc1C(=O)NC1CCOCC1 [Compound 178]

Molecular target: T2, CDK2/Cyclin A (Homo sapiens, UniProt P24941)
T2 construct: purchased Invitrogen PV6290
Experiment: Enzymatic assay for CDK2 (FRET based LANCE Ultra kinase assay)
Format: biochemical
Conditions: read-out: CDK2 enzymatic activity (IC50 range)
How it was run: as §1

IC50	Compound
100 to 1000 nM	CC(C)c1cnn2c(NCc3ccccc3-c3cc4ccccc4[nH]3)nc(N3CCC(N)(CO)CC3)nc12 [Compound 129]
100 to 1000 nM	CC(C)c1cnn2c(NCc3ccccc3-n3cc4cc(C(=O)NC5COC5)ccc4n3)nc(N3CCC(N)CC3)nc12 [Compound 176]
100 to 1000 nM	Cc1[nH]c(-c2ccccc2CNc2nc(N3CCC(N)CC3)nc3c(C(C)C)cnn23)nc1C(=O)NC1CCOCC1 [Compound 178]

Molecular target: T3, CDK5/p25 (Homo sapiens, UniProt Q00535)
T3 construct: purchased Invitrogen PR8543B
Experiment: Enzymatic assay for CDK5 (FRET based LANCE Ultra kinase assay)
Format: biochemical
Conditions: read-out: CDK5 enzymatic activity (IC50 range)
How it was run: as §1

T3 sequence (Q00535 whole entry): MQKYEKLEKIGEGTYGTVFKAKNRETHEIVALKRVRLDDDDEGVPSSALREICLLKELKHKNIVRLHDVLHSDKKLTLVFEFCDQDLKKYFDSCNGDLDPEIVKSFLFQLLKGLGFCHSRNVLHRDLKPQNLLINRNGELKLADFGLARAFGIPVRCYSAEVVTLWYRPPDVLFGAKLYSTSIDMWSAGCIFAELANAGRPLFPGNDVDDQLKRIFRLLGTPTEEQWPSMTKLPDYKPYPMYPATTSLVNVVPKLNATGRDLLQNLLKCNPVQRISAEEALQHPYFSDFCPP
T3 sequence (Q15078 99-307 partner limits assumed): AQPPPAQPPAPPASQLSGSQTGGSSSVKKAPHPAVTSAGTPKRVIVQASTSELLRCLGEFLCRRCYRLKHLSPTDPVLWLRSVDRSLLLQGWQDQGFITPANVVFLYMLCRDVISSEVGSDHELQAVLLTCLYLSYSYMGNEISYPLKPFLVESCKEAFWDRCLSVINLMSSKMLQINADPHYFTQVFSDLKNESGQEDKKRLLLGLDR

IC50	Compound
100 to 1000 nM	CC(C)c1cnn2c(NCc3ccccc3-c3cc4ccccc4[nH]3)nc(N3CCC(N)(CO)CC3)nc12 [Compound 129]
100 to 1000 nM	CC(C)c1cnn2c(NCc3ccccc3-n3cc4cc(C(=O)NC5COC5)ccc4n3)nc(N3CCC(N)CC3)nc12 [Compound 176]
< 100 nM	Cc1[nH]c(-c2ccccc2CNc2nc(N3CCC(N)CC3)nc3c(C(C)C)cnn23)nc1C(=O)NC1CCOCC1 [Compound 178]

Molecular target: T4, CDK7/Cyclin H/MNAT1 (Homo sapiens, UniProt P50613)
T4 construct: purchased Invitrogen PR6749B
Experiment: Enzymatic assay for CDK7 (FRET based LANCE Ultra kinase assay)
Format: biochemical
Conditions: CDK7 over CDK1
How it was run: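 LANCE Ultra TR-FRET kinase assay using a ULight-labeled peptide substrate and a Eu-labeled anti-phospho antibody, with ATP at its Km. Purified CDK/cyclin complex was added to compound after brief centrifugation.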

T4 sequence (P50613 whole entry): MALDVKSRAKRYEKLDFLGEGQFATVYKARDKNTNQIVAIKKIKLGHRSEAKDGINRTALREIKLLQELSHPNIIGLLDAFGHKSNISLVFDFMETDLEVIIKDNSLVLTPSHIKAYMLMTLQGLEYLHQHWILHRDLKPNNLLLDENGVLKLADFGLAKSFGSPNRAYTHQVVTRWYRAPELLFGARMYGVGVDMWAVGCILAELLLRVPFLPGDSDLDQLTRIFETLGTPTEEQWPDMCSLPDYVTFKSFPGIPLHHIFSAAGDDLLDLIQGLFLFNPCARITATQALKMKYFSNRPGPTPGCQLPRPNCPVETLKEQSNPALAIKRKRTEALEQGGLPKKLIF
T4 sequence (P51946 whole entry partner): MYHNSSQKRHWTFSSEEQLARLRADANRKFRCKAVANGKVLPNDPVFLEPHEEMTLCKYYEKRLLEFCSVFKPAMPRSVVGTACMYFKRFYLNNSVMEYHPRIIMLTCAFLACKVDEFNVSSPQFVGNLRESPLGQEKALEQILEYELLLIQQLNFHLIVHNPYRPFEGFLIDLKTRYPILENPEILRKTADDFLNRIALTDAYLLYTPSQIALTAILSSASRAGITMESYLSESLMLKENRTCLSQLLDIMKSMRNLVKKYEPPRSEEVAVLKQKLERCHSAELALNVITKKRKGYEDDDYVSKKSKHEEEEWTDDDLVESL
T4 sequence (P51948 whole entry partner): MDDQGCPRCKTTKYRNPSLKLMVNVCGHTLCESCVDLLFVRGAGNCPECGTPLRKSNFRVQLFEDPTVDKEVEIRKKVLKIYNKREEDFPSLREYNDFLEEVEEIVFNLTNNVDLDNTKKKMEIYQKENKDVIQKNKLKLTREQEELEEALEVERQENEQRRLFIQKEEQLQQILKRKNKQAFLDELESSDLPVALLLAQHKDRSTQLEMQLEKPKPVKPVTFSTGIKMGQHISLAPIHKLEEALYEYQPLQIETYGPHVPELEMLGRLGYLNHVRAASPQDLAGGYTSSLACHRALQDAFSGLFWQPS

CDK1/CDK7: Selectivity of CDK7 inhibition over CDK1 inhibition	Compound
A (A=greater than 200 fold)	CC(C)c1cnn2c(NCc3ccccc3-c3cc4ccccc4[nH]3)nc(N3CCC(N)(CO)CC3)nc12 [Compound 129]
A (A=greater than 200 fold)	Cc1[nH]c(-c2ccccc2CNc2nc(N3CCC(N)CC3)nc3c(C(C)C)cnn23)nc1C(=O)NC1CCOCC1 [Compound 178]

Compound	CDK1/CDK7: Selectivity of CDK7 inhibition over CDK1 inhibition
CC(C)c1cnn2c(NCc3ccccc3-n3cc4cc(C(=O)NC5COC5)ccc4n3)nc(N3CCC(N)CC3)nc12 [Compound 176]	B (B=less than 200 fold, but greater than 20 fold)

Same assay, conditions: CDK7 over CDK2

Compound	CDK2/CDK7: Selectivity of CDK7 inhibition over CDK2 inhibition
CC(C)c1cnn2c(NCc3ccccc3-c3cc4ccccc4[nH]3)nc(N3CCC(N)(CO)CC3)nc12 [Compound 129]	A (A=greater than 200 fold)
CC(C)c1cnn2c(NCc3ccccc3-n3cc4cc(C(=O)NC5COC5)ccc4n3)nc(N3CCC(N)CC3)nc12 [Compound 176]	B (B=less than 200 fold, but greater than 20 fold)
Cc1[nH]c(-c2ccccc2CNc2nc(N3CCC(N)CC3)nc3c(C(C)C)cnn23)nc1C(=O)NC1CCOCC1 [Compound 178]	B (B=less than 200 fold, but greater than 20 fold)

Same assay, conditions: CDK7 over CDK5

Compound	CDK5/CDK7: Selectivity of CDK7 inhibition over CDK5 inhibition
CC(C)c1cnn2c(NCc3ccccc3-c3cc4ccccc4[nH]3)nc(N3CCC(N)(CO)CC3)nc12 [Compound 129]	B (B=less than 200 fold, but greater than 20 fold)
CC(C)c1cnn2c(NCc3ccccc3-n3cc4cc(C(=O)NC5COC5)ccc4n3)nc(N3CCC(N)CC3)nc12 [Compound 176]	B (B=less than 200 fold, but greater than 20 fold)
Cc1[nH]c(-c2ccccc2CNc2nc(N3CCC(N)CC3)nc3c(C(C)C)cnn23)nc1C(=O)NC1CCOCC1 [Compound 178]	C (C=less than 20 fold)

Same assay, conditions: read-out: CDK7 enzymatic activity (IC50 range)

IC50	Compound
< 100 nM	CC(C)c1cnn2c(NCc3ccccc3-c3cc4ccccc4[nH]3)nc(N3CCC(N)(CO)CC3)nc12 [Compound 129]
< 100 nM	CC(C)c1cnn2c(NCc3ccccc3-n3cc4cc(C(=O)NC5COC5)ccc4n3)nc(N3CCC(N)CC3)nc12 [Compound 176]
< 100 nM	Cc1[nH]c(-c2ccccc2CNc2nc(N3CCC(N)CC3)nc3c(C(C)C)cnn23)nc1C(=O)NC1CCOCC1 [Compound 178]

Test system: H460
Experiment: Cellular H460 viability assay (CellTiter-Glo, 72 hours)
Format: cell-based
Conditions: Homo sapiens, NCI-H460
How it was run: (§2)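 72 h treatment, 37 °C, 5% CO2; DMSO ctrl, final <0.1%; CellTiter-Glo luminescence; n=2.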

IC50	Compound
< 1000 nM	CC(C)c1cnn2c(NCc3ccccc3-c3cc4ccccc4[nH]3)nc(N3CCC(N)(CO)CC3)nc12 [Compound 129]
< 1000 nM	CC(C)c1cnn2c(NCc3ccccc3-n3cc4cc(C(=O)NC5COC5)ccc4n3)nc(N3CCC(N)CC3)nc12 [Compound 176]
< 1000 nM	Cc1[nH]c(-c2ccccc2CNc2nc(N3CCC(N)CC3)nc3c(C(C)C)cnn23)nc1C(=O)NC1CCOCC1 [Compound 178]

Test system: MM.1S
Experiment: Cellular MM.1S viability assay (CellTiter-Glo, 72 hours)
Format: cell-based
Conditions: Homo sapiens, MM1.S
Excerpt: Human T-cell acute lymphoblastic leukemia cell line, MOLT-4 (ATCC, Cat #CRL-1582), Human multiple myeloma cell line, RPMI-8226 (Invitrogen, Cat #22400-089) and MM.1S (ATCC, Cat #CRL-2974), NSCLC (Non-small cell lung cancer) cell line H460 (ATCC, Cat #HTB-177), Human colon colorectal carcinoma cell line HCT116 (ATCC, Cat #CCL-247), Human acute monocytic leukemia cell line MV4-11 (ATCC, Cat #CRL-9591), OVCAR-3 (ATCC, Cat #HTB-161) and A2780 (ECACC, Cat #93112519) were obtained from ATCC. Cells were grown in RPMI-1640 media (Invitrogen, Cat #22400-089) supplemented with 10% FBS (Invitrogen, Cat #10099141) and 1% penicillin/streptomycin (Invitrogen, Cat #15070063) and cultured at 37° C., 5% CO2 in a humidified chamber. All cell lines were routinely tested for mycoplasma.
The effect of the CDK7 inhibitor to inhibit the growth of target cancer cells was evaluated through the 72 hours time period of viability assay. Briefly, the candidate cell line ware plated in 96 well plate at the following density of cells respectively. 1×10^4 cells/well for MOLT-4, RPMI-8226, MV4-11 and MM.1S, 5×10^3 for H460, HCT116 and OVCAR-3 and IX 10^3 for A2780. After 24 hours, the cells were treated with various concentrations of the compound (ranging from 0.0015 uM to 10 uM). DMSO solvent without compound served as a control and final DMSO concentration less than 0.1%. After 72 hours of incubation at 37° C., 5% CO2 incubator, cells were analyzed for the viability using the CellTiter-Glo Luminescent Cell Viability Assay (Promega, Cat #G7570). All viability assays were performed in duplicate and Luminescence was read using an Envision (Perkin Elmer, USA). Data was analyzed using XLfit software.

IC50	Compound
≤ 1000 nM	CC(C)c1cnn2c(NCc3ccccc3-n3cc4cc(C(=O)NC5COC5)ccc4n3)nc(N3CCC(N)CC3)nc12 [Compound 176]
≤ 1000 nM	Cc1[nH]c(-c2ccccc2CNc2nc(N3CCC(N)CC3)nc3c(C(C)C)cnn23)nc1C(=O)NC1CCOCC1 [Compound 178]

Test system: MV4-11
Experiment: Cellular MV4-11 viability assay (CellTiter-Glo, 72 hours)
Format: cell-based
Conditions: Homo sapiens
How it was run: as §2

IC50	Compound
< 1000 nM	CC(C)c1cnn2c(NCc3ccccc3-c3cc4ccccc4[nH]3)nc(N3CCC(N)(CO)CC3)nc12 [Compound 129]
< 1000 nM	CC(C)c1cnn2c(NCc3ccccc3-n3cc4cc(C(=O)NC5COC5)ccc4n3)nc(N3CCC(N)CC3)nc12 [Compound 176]
< 1000 nM	Cc1[nH]c(-c2ccccc2CNc2nc(N3CCC(N)CC3)nc3c(C(C)C)cnn23)nc1C(=O)NC1CCOCC1 [Compound 178]

Test system: RPMI-8226
Experiment: Cellular RPMI-8226 viability assay (CellTiter-Glo, 72 hours)
Format: cell-based
Conditions: Homo sapiens
How it was run: as §2

IC50	Compound
< 1000 nM	CC(C)c1cnn2c(NCc3ccccc3-c3cc4ccccc4[nH]3)nc(N3CCC(N)(CO)CC3)nc12 [Compound 129]

Test system: A2780
Experiment: Cellular A2780 viability assay (CellTiter-Glo, 72 hours)
Format: cell-based
Conditions: Homo sapiens
How it was run: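 Cells seeded at 1×10^4/well (MM.1S), 5×10^3 (OVCAR-3) or 1×10^3 (A2780), grown in RPMI-1640 with 10% FBS. After 24 h, compound added at 0.0015–10 uM, final DMSO below 0.1%, for 72 h at 37° C. Viability read by CellTiter-Glo luminescence in duplicate, with curve fitting.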

IC50	Compound
≤ 1000 nM	CC(C)c1cnn2c(NCc3ccccc3-c3cc4ccccc4[nH]3)nc(N3CCC(N)(CO)CC3)nc12 [Compound 129]

Reference: US11945822B2, “Pyrazolo-triazine and/or pyrazolo-pxrimidine derivatives as selective inhibitor of cyclin dependent kinase” (QURIENT CO., LTD., priority 2018, dated 2024)
